We go through 2 compounds from patent publication US4482709A, “Inclusion compounds of cyclodextrin with sulfur-containing compounds” (Santen Pharmaceutical Co., Ltd., priority 1981, dated 1984).

This data set in a line: Solubility Test (solubility in water). It counts as physicochemical. An excerpt: Solubility in water of inclusion compound of cyclodextrin with compound A or compound C is shown below. As the result, the inclusion compound is extremely more soluble in water than the starting compound.

Converted amounts (≈) assume the structure as drawn.

The compound `O=C(O)[C@@H]1CS[C@H](c2ccccc2O)N1C(=O)CCS` [Compound A, (2R,4R)-2-(2-hydroxyphenyl)-3-(3-mercaptopropanoyl)-4-thiazolidinecarboxylic acid] displayed a solubility of 1600 µg/mL (≈ 5110 µM).

`O=C(O)[C@@H]1CSC(c2ccccc2O)N1C(=O)CCSSCCC(=O)N1C(c2ccccc2O)SC[C@H]1C(=O)O` (stereo partly drawn) [Compound C, (4R,4'R)-3,3'-[3,3'-dithiobis(propanoyl)]bis[2-(2-hydroxyphenyl)-4-thiazolidinecarboxylic acid]] returned a solubility of 100 µg/mL (≈ 160 µM).

The solubility is how much of the substance goes into solution per volume. Read a high solubility as a readily soluble substance.
